Test results reported in patent US8383581B2, “Short-chain peptides as parathyroid hormone (PTH) receptor agonist” (Cadila Healthcare Limited, priority 2009, dated 2013).
Where a SMILES comes first, the peptide text is derived from it. [ ]: non-standard residue; d: D form. ξ: configuration not given here. hArg = N=C(N)NCCCC[C@H](N)C(=O)O; ξαMeF = CC(N)(Cc1ccccc1)C(=O)O; Nle = CCCC[C@H](N)C(=O)O; Ac3c = NC1(C(=O)O)CC1; Aib = CC(C)(N)C(=O)O

Experiments:
Type in all cases: in vitro ADME
[1] = Stability of peptides in human plasma
Description: (§1) b) Stability of Peptides in Human Plasma, Simulated Gastric Fluid, Intestinal Fluid and Liver Microsomes (Ex-Vivo): Different short-chain peptides (final concentration 2 μM) were incubated with either pooled human plasma (7.5 μL) or simulated gastric fluid (pH 1.5; composition HCl, NaCl and Pepsin) or simulated intestinal fluid (pH 7.5) or human liver microsomes, for 0, 2, 4, 6, 12 and 24 h (37° C.; 50 mM triethanolamine-HCl buffer; pH 7.8). Concentrations of human plasma/simulated gastric fluid/simulated intestinal fluid/human liver microsomes were selected in preliminary experiments to provide degradation of approximately 50% of PTH(1-34) within 1 h, therefore allowing time-dependent degradation to be viewed over 24 h. Reactions were terminated by the addition of TFA/H2O ([…], 10% (v/v)). The reaction products were then applied to a Vydac C18 analytical column (4.6×250-mm) and the major degradation fragment separated from intact short-chain peptides. The column was equilibrated with TFA/H20, at a flow rate of 1 mL/min. Using 0.1% (v/v) TFA in 70% acetonitrile/H2O, the concentration of acetonitrile in the eluting solvent was raised from 0% to 28% over 10 min and from 28% to 42% over 30 min. The absorbance was monitored at 206 nm using UV detector and peaks were collected manually prior to ESI-MS analysis. Area under the curve was measured for test peptides and their metabolites and percentage degradation were calculated at each time point over a period of 24 h. Stability study results of selected peptides, in human plasma, simulated gastric fluid, intestinal fluid and liver microsomes (in vitro) are listed in Table 4.

[2] = Stability of peptides in simulated gastric fluid (pH 1.5; HCl, NaCl and Pepsin); conditions: for half-life: simulated gi fluid
Description: as §1

[3] = Stability of peptides in simulated intestinal fluid (pH 7.5)
Description: as §1

[4] = Stability of peptides in human liver microsomes
Description: as §1

[5] = simulated gastric fluid, 2 μM, pH 1.5
[6] = simulated intestinal fluid, 2 μM, pH 7.5
[7] = human, microsomes, 2 μM, pH 7.8

CC[C@H](C)[C@H](NC(=O)[C@H](CCC(=O)O)NC(=O)C(C)(C)NC(=O)[C@@H](NC(=O)C1(NC(=O)[C@@H](N)C(C)C)CC1)C(C)C)C(=O)N[C@@H](CCC(N)=O)C(=O)N[C@@H](CC(C)C)C(=O)NC(C)(CCSC)C(=O)N[C@@H](Cc1c[nH]cn1)C(=O)N[C@@H](CCC(N)=O)C(=O)N[C@@H](CCCCNC(=N)N)C(=O)N[C@@H](C)C(=O)N[C@@H](CCCCNC(=N)N)C(=O)NC(C)(Cc1c[nH]c2ccccc12)C(=O)NC(C)(CCCc1ccccc1)C(N)=O (single isomer, unassigned) [Seq. ID. 950]
half-life ([1]; human, plasma): > 1440 min | metabolised at 24 h, 2 μM ([1]; human, plasma, pH 7.8): 0% | % degradation of peptides in 24 h when incubated with simulated gastric fluid [2, 5]: 00% | half-life ([2]; pH 1.5): > 1440 min | half-life ([3]; simulated gi fluid, pH 7.5): > 1440 min | % degradation of peptides in 24 h when incubated with simulated intestinal fluid [3, 6]: 00% | half-life (t1/2) in liver microsomes ([4]; human, microsomes): (5) h | % degradation of peptides in 24 h when incubated with liver microsomes [4, 7]: 35%

CC[C@H](C)[C@H](NC(=O)[C@H](CCC(=O)O)NC(=O)[C@H](CO)NC(=O)[C@@H](NC(=O)[C@@H](N)CO)C(C)C)C(=O)N[C@@H](CCC(N)=O)C(=O)N[C@@H](CC(C)C)C(=O)N[C@@H](CCSC)C(=O)N[C@@H](Cc1cnc[nH]1)C(=O)N[C@@H](CC(N)=O)C(=O)N[C@@H](CC(C)C)C(=O)NCC(=O)N[C@@H](CCCCN)C(=O)N[C@@H](Cc1cnc[nH]1)C(=O)N[C@@H](CC(C)C)C(=O)N[C@@H](CC(N)=O)C(=O)N[C@@H](CO)C(=O)N[C@@H](CCSC)C(=O)N[C@@H](CCC(=O)O)C(=O)N[C@@H](CCCN=C(N)N)C(=O)N[C@H](C(=O)N[C@@H](CCC(=O)O)C(=O)N[C@@H](Cc1c[nH]c2ccccc12)C(=O)N[C@@H](CC(C)C)C(=O)N[C@@H](CCCN=C(N)N)C(=O)N[C@@H](CCCCN)C(=O)N[C@@H](CCCCN)C(=O)N[C@@H](CC(C)C)C(=O)N[C@@H](CCC(N)=O)C(=O)N[C@@H](CC(=O)O)C(=O)N[C@H](C(=O)N[C@@H](Cc1cnc[nH]1)C(=O)N[C@@H](CC(N)=O)C(=O)N[C@@H](Cc1ccccc1)C(=O)O)C(C)C)C(C)C [PTH(1-34), reference compound]
% degradation of peptides in 24 h when incubated with human plasma ([1]; 24 h, human plasma, 37° C., peptide 2 μM): 97% | half-life ([1]; human plasma, 37° C., peptide 2 μM, read-out: half-life (t1/2) in human plasma): 30 min | metabolised at 1 h ([1]; pH 7.8, human plasma, within 1 h, 37° C., preliminary experiments, read-out: degradation): ~50% | % degradation of peptides in 24 h when incubated with simulated gastric fluid ([2]; simulated gastric fluid pH 1.5, 37° C., peptide 2 μM): 100% | metabolised at 1 h ([2]; pH 1.5, simulated gastric fluid, within 1 h, 37° C., preliminary experiments, read-out: degradation): ~50% | half-life ([2]; simulated gastric fluid pH 1.5, 37° C., peptide 2 μM, read-out: half-life (t1/2) in simulated gastric fluid): 6 min | % degradation of peptides in 24 h when incubated with simulated intestinal fluid ([3]; simulated intestinal fluid pH 7.5, 37° C., peptide 2 μM): 100% | metabolised at 1 h ([3]; pH 7.5, simulated intestinal fluid, within 1 h, 37° C., preliminary experiments, read-out: degradation): ~50% | half-life ([3]; simulated gi fluid, simulated intestinal fluid pH 7.5, 37° C., peptide 2 μM, read-out: half-life (t1/2) in simulated intestinal fluid): 12 min | % degradation of peptides in 24 h when incubated with liver microsomes ([4]; human liver microsomes, 37° C., peptide 2 μM): 100% | half-life ([4]; human liver microsomes, 37° C., peptide 2 μM, read-out: half-life (t1/2) in liver microsomes): 6 min | metabolised at 1 h ([4]; pH 7.8, human liver microsomes, within 1 h, 37° C., preliminary experiments, read-out: degradation): ~50%

CCCC[C@H](NC(=O)[C@H](CC(C)C)NC(=O)[C@H](CCC(N)=O)NC(=O)[C@@H](NC(=O)[C@H](CCC(=O)O)NC(=O)C(C)(C)NC(=O)[C@@H](NC(=O)C(C)(C)N)C(C)C)[C@@H](C)CC)C(=O)N[C@@H](Cc1c[nH]cn1)C(=O)N[C@@H](CCC(N)=O)C(=O)N[C@@H](CCCCNC(=N)N)C(=O)NC(C)(C)C(=O)N[C@@H](CCCCN)C(=O)NC(C)(Cc1ccccc1)C(N)=O (stereo partly drawn) [Seq. ID. 10] (H-[Aib]V[Aib]EIQL[Nle]HQ[hArg][Aib]K[ξαMeF]-NH2)
half-life (t1/2) in human plasma ([1]; human, plasma): (9) h | metabolised at 24 h, 2 μM ([1]; human, plasma, pH 7.8): 70% | % degradation of peptides in 24 h when incubated with simulated gastric fluid [2, 5]: 100% | half-life ([2]; pH 1.5): 30 min | half-life ([3]; simulated gi fluid, pH 7.5): 30 min | % degradation of peptides in 24 h when incubated with simulated intestinal fluid [3, 6]: 100% | half-life ([4]; human, microsomes): 30 min | % degradation of peptides in 24 h when incubated with liver microsomes [4, 7]: 100%

CC[C@H](C)[C@H](NC(=O)[C@H](CCC(=O)O)NC(=O)C(C)(C)NC(=O)[C@@H](NC(=O)C1(N)CC1)C(C)C)C(=O)N[C@@H](CCC(N)=O)C(=O)N[C@@H](CC(C)C)C(=O)N[C@@H](CCSC)C(=O)N[C@@H](Cc1c[nH]cn1)C(=O)N[C@@H](CCC(N)=O)C(=O)N[C@@H](CCCCNC(=N)N)C(=O)NC(C)(C)C(=O)N[C@@H](CCCCN)C(=O)NC(C)(Cc1ccccc1)C(N)=O (stereo partly drawn) [Seq. ID. 14] (H-[Ac3c]V[Aib]EIQLMHQ[hArg][Aib]K[ξαMeF]-NH2)
half-life ([1]; human, plasma): 480 min | metabolised at 24 h, 2 μM ([1]; human, plasma, pH 7.8): 69% | % degradation of peptides in 24 h when incubated with simulated gastric fluid [2, 5]: 11% | half-life ([2]; pH 1.5): 420 min | half-life (t1/2) in simulated intestinal fluid ([3]; simulated gi fluid, pH 7.5): (6) h | % degradation of peptides in 24 h when incubated with simulated intestinal fluid [3, 6]: 43% | half-life ([4]; human, microsomes): 120 min | % degradation of peptides in 24 h when incubated with liver microsomes [4, 7]: 77%
